Source: PMC12720774, “Detergents alter the stability and lipid binding properties of the CD1d immunoreceptor” (Protein Science : A Publication of the Protein Society, 2025)
“And” between values parts separate entries of the source, which are not always exact repeats. Equal entries are not always repeated. “Also recorded” adds a separate entry of the source. Structures can show the parent of a compound that is named as a salt. Where two headings read alike, the source gives them in different places.

Legend:
[1] = target: T1, recombinant human CD1d ectodomain/β2m complex (hCD1d) (Homo sapiens, UniProt P15813+P61769); experiment: Intrinsic tryptophan fluorescence (ITF) binding assay
T1 construct: TEV protease cleavage site ENLYFQS (C); BirA biotinylation site (C); His7 (C); made in house; host or cells: TurboCHO cells (GenScript)
T1 sequence (P61769+P15813 fused): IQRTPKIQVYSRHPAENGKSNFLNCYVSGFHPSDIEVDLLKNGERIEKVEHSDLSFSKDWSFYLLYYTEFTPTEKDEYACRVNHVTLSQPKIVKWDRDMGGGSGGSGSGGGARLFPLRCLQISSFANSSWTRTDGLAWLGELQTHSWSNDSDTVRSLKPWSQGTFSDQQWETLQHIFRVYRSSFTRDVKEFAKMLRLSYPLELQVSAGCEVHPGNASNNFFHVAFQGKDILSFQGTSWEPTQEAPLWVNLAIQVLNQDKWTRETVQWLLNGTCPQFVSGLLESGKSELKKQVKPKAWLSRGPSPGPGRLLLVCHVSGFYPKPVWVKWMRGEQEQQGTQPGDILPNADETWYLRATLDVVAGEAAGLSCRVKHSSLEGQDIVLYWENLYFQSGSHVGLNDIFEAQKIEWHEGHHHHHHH

[2] = target: T2, recombinant human CD1d ectodomain/β2m complex (hCD1d) (Homo sapiens, UniProt P15813); experiment: as above
T2 construct: TEV protease cleavage site ENLYFQS (C); BirA biotinylation site (C); His7 (C); made in house; host or cells: TurboCHO cells (GenScript)
T2 sequence (P15813 whole entry, looked up, the tested form may be a part, one chain of several): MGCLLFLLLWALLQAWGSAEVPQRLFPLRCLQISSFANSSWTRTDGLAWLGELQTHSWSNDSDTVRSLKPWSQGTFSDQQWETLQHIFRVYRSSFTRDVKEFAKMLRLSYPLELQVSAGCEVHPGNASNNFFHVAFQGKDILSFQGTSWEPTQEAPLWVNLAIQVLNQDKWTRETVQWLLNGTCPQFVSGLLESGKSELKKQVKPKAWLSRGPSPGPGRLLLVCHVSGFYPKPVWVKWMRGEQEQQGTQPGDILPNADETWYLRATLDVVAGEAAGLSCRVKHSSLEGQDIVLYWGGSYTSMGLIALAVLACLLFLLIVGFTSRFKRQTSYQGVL

[3] = approximate, ref Anatrace catalogue, cited from earlier work
[4] = target: T3, AF647‐labeled hCD1d (Homo sapiens, UniProt P15813+P61769); experiment: Microscale thermophoresis (MST) binding assay
T3 construct: TEV protease cleavage site ENLYFQS (C); BirA biotinylation site (C); His7 (C); made in house; host or cells: TurboCHO cells (GenScript)
T3 sequence (P61769+P15813 fused): as the sequence (P61769+P15813 fused) above
How it was run: (§1)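 hCD1d was NHS-labeled with AF647 (~75% labeling) and held at 100 nM against rising detergent or 18:1 LPC in PBS pH 7.4. Samples were preincubated at 37°C overnight (~12 h) and read at 25°C with 20 s IR-on time. Data are mean ± SD, n = 3.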

[5] = target: T4, AF647‐labeled hCD1d (Homo sapiens, UniProt P15813); experiment: Microscale thermophoresis (MST) binding assay
T4 construct: TEV protease cleavage site ENLYFQS (C); BirA biotinylation site (C); His7 (C); made in house; host or cells: TurboCHO cells (GenScript)
T4 sequence (P15813 whole entry, looked up): as the sequence (P15813 whole entry, looked up, the tested form may be a part, one chain of several) above
How it was run: as §1

[6] = 0.001 M detergent, 100 nM AF647‐hCD1d

Row | SMILES | CMC [3] | CMC ([3]; weight/volume) [%] | Fnorm (rep 1-3) ([4]; 9.76563e-7 M detergent) | Fnorm (rep 1-3) ([4]; 1.95313e-6 M detergent) | Fnorm (rep 1-3) ([4]; 3.90625e-6 M detergent) | Fnorm (rep 1-3) ([4]; 7.8125e-6 M detergent) | Fnorm (rep 1-3) ([4]; 1.5625e-5 M detergent) | Fnorm (rep 1-3) ([4]; 3.125e-5 M detergent) | Fnorm (rep 1-3) ([4]; 6.25e-5 M detergent) | Fnorm (rep 1-3) ([4]; 0.000125 M detergent) | Fnorm (rep 1-3) ([4]; 0.00025 M detergent) | Fnorm (rep 1-3) ([4]; 0.0005 M detergent) | Fnorm (rep 1-3) [4, 6] | other results
1 | CCCCCCCCO[C@@H]1O[C@H](CO)[C@@H](O)[C@H](O)[C@H]1O [ODG, n‐octyl‐β‐D‐glucopyranoside] | 18,000 μM | 0.53 | 842.328 ‰ and 845.864 ‰ and 848.262 ‰ | 843.26 ‰ and 846.856 ‰ and 850.006 ‰ | 843.026 ‰ and 843.822 ‰ and 848.605 ‰ | 843.431 ‰ and 845.217 ‰ and 850.155 ‰ | 843.398 ‰ and 846.496 ‰ and 848.167 ‰ | 843.251 ‰ and 846.684 ‰ and 848.174 ‰ | 844.533 ‰ and 847.002 ‰ and 847.612 ‰ | 844.648 ‰ and 847.89 ‰ and 849.866 ‰ | 846.571 ‰ and 844.204 ‰ and 849.145 ‰ | 846.14 ‰ and 848.026 ‰ and 848.57 ‰ | 845.727 ‰ and 847.773 ‰ and 849.553 ‰ | binding to hCD1d by ITF (in words) [1]: No significant binding; also recorded: minimal concentration‐dependent fluorescence changes; F-F0/F0 (rep 1-3) ([1]; Concentration (M) 0.000977): 0; Kd ([2]; detergent with 100 nM hCD1d, 25°C, 1X PBS pH 7.4, apparent, read-out: K D (ITF)): > 10000 µM; Fnorm (rep 1-3) ([4]; 0.002 M detergent): 847.311 ‰ and 851.671 ‰ and 850.904 ‰; Fnorm (rep 1-3) ([4]; 0.004 M detergent): 852.082 ‰ and 853.968 ‰ and 856.97 ‰; Fnorm (rep 1-3) ([4]; 0.008 M detergent): 864.475 ‰ and 866.313 ‰ and 870.655 ‰; Fnorm (rep 1-3) ([4]; 0.032 M detergent): 877.078 ‰ and 878.262 ‰ and 882.232 ‰; Kd ([5]; Figure 5B, detergent binding to hCD1d, read-out: MST - Kd (uM) average): 6580 µM; Kd ([5]; detergent with 100 nM AF647‐labeled hCD1d, 25°C, apparent, read-out: K D (MST)): 6580 ± 186 µM
2 | CCCCCCCCCCCCOS(=O)(=O)O [SDS, sodium dodecyl sulfate] | 1990 µM | 0.057 | 792.907 ‰ and 794.378 ‰ and 788.273 ‰ | 792.77 ‰ and 792.711 ‰ and 788.545 ‰ | 794.169 ‰ and 793.199 ‰ and 789.062 ‰ | 793.805 ‰ and 798.209 ‰ and 788.93 ‰ | 795.098 ‰ and 796.977 ‰ and 790.788 ‰ | 796.19 ‰ and 799.152 ‰ and 792.387 ‰ | 800.38 ‰ and 802.553 ‰ and 795.217 ‰ | 801.158 ‰ and 800.337 ‰ and 800.706 ‰ | 801.719 ‰ and 804.302 ‰ and 803.561 ‰ | 816.347 ‰ and 820.909 ‰ and 814.082 ‰ | 825.168 ‰ and 825.899 ‰ and 822.956 ‰ | F-F0/F0 (rep 1-3) ([1]; 3.0518e-8 M detergent): 0; Kd ([2]; ITF - Kd (uM) average, Figure 5A, detergent binding to hCD1d): 35.5 µM; Kd ([2]; K D (ITF), detergent with 100 nM hCD1d, 25°C, 1X PBS pH 7.4, apparent): 35.5 ± 22.6 µM; binding to hCD1d by MST (in words) [4]: observable binding; Fnorm (rep 1-3) ([4]; 3.05176e-8 M detergent): 794.561 ‰ and 796.538 ‰ and 787.226 ‰; Fnorm (rep 1-3) ([4]; 6.10352e-8 M detergent): 793.573 ‰ and 796.65 ‰ and 788.808 ‰; Fnorm (rep 1-3) ([4]; 1.2207e-7 M detergent): 795.629 ‰ and 795.536 ‰ and 789.052 ‰; Fnorm (rep 1-3) ([4]; 2.44141e-7 M detergent): 792.166 ‰ and 793.398 ‰ and 784.145 ‰; Fnorm (rep 1-3) ([4]; 4.88281e-7 M detergent): 790.042 ‰ and 793.566 ‰ and 789.803 ‰; Kd ([5]; K D (MST), detergent with 100 nM AF647‐labeled hCD1d, 25°C, apparent): > 10000 µM; Kd ([5]; K D, detergent class summary, approximate, collectively from ITF and MST): 10 to 500 µM
